Results as given in ChEMBL document CHEMBL3232845 (Bioorg Med Chem Lett, 2014).

Experiments:
[1] = biological target: Cyclin-dependent kinase 5/CDK5 activator 1 (Homo sapiens) (UniProt Q00535+Q15078); test: Inhibition of human CDK5/p35 assessed as enzyme activity at 1 uM relative to control; assay type: protein-complex assay; set-up: scale not given: the % may be the effect or the level left
TAK1/TAB1 (Homo sapiens) = TAK1/TAB1 (Homo sapiens) (UniProt Q15750+O43318); test: Inhibition of human TAK1-TAB1 assessed as enzyme activity at 1 uM relative to control; assay type: protein-complex assay; set-up: scale not given: the % may be the effect or the level left
[2] = biological target: Rho-associated protein kinase 2 (Homo sapiens) (UniProt O75116); test: Inhibition of human ROCK-2 assessed as enzyme activity at 1 uM relative to control; set-up: scale not given: the % may be the effect or the level left
[3] = biological target: SRSF protein kinase 1 (Homo sapiens) (UniProt Q96SB4); test: Inhibition of human SRPK1 assessed as enzyme activity at 1 uM relative to control; set-up: scale not given: the % may be the effect or the level left
[4] = biological target: Mitogen-activated protein kinase 14 (Homo sapiens) (UniProt Q16539); test: Inhibition of human p38alpha assessed as enzyme activity at 1 uM relative to control; set-up: scale not given: the % may be the effect or the level left
[5] = biological target: Fibroblast growth factor receptor 4 (Homo sapiens) (UniProt P22455); test: Inhibition of human FGFR4 assessed as enzyme activity at 1 uM relative to control; set-up: scale not given: the % may be the effect or the level left
Chain of Fibroblast growth factor receptor 4 (Homo sapiens) (P22455 22-802 limits assumed): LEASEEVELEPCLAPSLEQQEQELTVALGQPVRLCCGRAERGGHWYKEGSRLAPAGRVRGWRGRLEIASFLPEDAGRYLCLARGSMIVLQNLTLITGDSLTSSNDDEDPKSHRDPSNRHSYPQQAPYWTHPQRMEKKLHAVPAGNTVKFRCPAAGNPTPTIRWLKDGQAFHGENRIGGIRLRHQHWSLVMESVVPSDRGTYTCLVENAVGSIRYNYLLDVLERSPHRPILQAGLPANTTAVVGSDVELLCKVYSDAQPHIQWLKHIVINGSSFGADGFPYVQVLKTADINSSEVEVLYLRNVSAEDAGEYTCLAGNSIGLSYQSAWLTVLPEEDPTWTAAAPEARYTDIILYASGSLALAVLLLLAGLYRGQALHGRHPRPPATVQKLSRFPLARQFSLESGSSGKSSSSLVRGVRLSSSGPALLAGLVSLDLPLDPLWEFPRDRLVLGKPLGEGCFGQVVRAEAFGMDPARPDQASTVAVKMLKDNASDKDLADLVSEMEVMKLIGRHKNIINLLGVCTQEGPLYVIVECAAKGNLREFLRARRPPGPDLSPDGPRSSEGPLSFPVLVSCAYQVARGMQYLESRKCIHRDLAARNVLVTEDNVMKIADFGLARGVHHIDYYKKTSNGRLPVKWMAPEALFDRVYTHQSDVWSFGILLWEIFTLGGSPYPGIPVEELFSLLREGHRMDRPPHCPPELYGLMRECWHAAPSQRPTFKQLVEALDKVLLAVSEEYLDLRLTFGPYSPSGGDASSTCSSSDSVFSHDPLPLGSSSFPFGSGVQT

[6] = biological target: Casein kinase I isoform gamma-3 (Homo sapiens) (UniProt Q9Y6M4); test: Inhibition of human CK1gamma3 assessed as enzyme activity at 1 uM relative to control; set-up: scale not given: the % may be the effect or the level left
[7] = biological target: Serine/threonine-protein kinase TAO3 (Homo sapiens) (UniProt Q9H2K8); test: Inhibition of human TAO3 assessed as enzyme activity at 1 uM relative to control; set-up: scale not given: the % may be the effect or the level left
[8] = Antitumor activity against human LOX cells expressing B-Raf V600E mutant xenografted in nude mouse assessed as tumor growth inhibition at 30 mg/kg qd for 4 days measured on day 8; assay type: functional; settings: read-out: TGI
[9] = Clearance in mouse at 2.5 mg/kg, iv; assay type: ADME, organism-based; set-up: dose 2.5 mg/kg, route intravenous; settings: in vivo
[10] = biological target: RAC-beta serine/threonine-protein kinase (Homo sapiens) (UniProt P31751); test: Inhibition of human AKT2 assessed as enzyme activity at 1 uM relative to control; set-up: scale not given: the % may be the effect or the level left
[11] = biological target: Fibroblast growth factor receptor 3 (Homo sapiens) (UniProt P22607); test: Inhibition of human FGFR3 assessed as enzyme activity at 1 uM relative to control; set-up: scale not given: the % may be the effect or the level left
[12] = biological target: Serine/threonine-protein kinase PAK 6 (Homo sapiens) (UniProt Q9NQU5); test: Inhibition of human PAK6 assessed as enzyme activity at 1 uM relative to control; set-up: scale not given: the % may be the effect or the level left
[13] = biological target: Cytoplasmic tyrosine-protein kinase BMX (Homo sapiens) (UniProt P51813); test: Inhibition of human Bmx assessed as enzyme activity at 1 uM relative to control; set-up: scale not given: the % may be the effect or the level left
[14] = biological target: Tyrosine-protein kinase Fer (Homo sapiens) (UniProt P16591); test: Inhibition of human Fer assessed as enzyme activity at 1 uM relative to control; set-up: scale not given: the % may be the effect or the level left
[15] = biological target: Homeodomain-interacting protein kinase 2 (Homo sapiens) (UniProt Q9H2X6); test: Inhibition of human HIPK2 assessed as enzyme activity at 1 uM relative to control; set-up: scale not given: the % may be the effect or the level left
[16] = Antitumor activity against human LOX cells expressing B-Raf V600E mutant xenografted in nude mouse assessed as tumor growth inhibition at 30 mg/kg qd for 4 days measured on day 3; assay type: functional; settings: read-out: TGI
[17] = biological target: Protein kinase C beta type (Homo sapiens) (UniProt P05771); test: Inhibition of human PKCbeta2 assessed as enzyme activity at 1 uM relative to control; set-up: scale not given: the % may be the effect or the level left
[18] = biological target: Dual specificity mitogen-activated protein kinase kinase 7 (Homo sapiens) (UniProt O14733); test: Inhibition of human MKK7 assessed as enzyme activity at 1 uM relative to control; set-up: scale not given: the % may be the effect or the level left
[19] = biological target: Calcium/calmodulin-dependent protein kinase type 1 (Homo sapiens) (UniProt Q14012); test: Inhibition of human CAMK1 assessed as enzyme activity at 1 uM relative to control; set-up: scale not given: the % may be the effect or the level left
Chain of Calcium/calmodulin-dependent protein kinase type 1 (Homo sapiens) (Q14012 whole entry, looked up): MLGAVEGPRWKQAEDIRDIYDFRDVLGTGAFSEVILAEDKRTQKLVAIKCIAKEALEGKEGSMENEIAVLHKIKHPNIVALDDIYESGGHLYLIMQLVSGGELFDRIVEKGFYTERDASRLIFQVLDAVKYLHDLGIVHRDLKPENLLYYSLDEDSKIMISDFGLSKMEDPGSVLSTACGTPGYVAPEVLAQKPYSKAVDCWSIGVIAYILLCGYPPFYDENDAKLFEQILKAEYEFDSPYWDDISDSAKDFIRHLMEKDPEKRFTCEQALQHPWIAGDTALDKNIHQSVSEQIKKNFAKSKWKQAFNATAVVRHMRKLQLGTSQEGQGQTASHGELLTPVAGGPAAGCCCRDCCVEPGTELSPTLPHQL

[20] = biological target: Tyrosine-protein kinase receptor TYRO3 (Homo sapiens) (UniProt Q06418); test: Inhibition of human Rse assessed as enzyme activity at 1 uM relative to control; set-up: scale not given: the % may be the effect or the level left
Chain of Tyrosine-protein kinase receptor TYRO3 (Homo sapiens) (Q06418 whole entry, canonical isoform): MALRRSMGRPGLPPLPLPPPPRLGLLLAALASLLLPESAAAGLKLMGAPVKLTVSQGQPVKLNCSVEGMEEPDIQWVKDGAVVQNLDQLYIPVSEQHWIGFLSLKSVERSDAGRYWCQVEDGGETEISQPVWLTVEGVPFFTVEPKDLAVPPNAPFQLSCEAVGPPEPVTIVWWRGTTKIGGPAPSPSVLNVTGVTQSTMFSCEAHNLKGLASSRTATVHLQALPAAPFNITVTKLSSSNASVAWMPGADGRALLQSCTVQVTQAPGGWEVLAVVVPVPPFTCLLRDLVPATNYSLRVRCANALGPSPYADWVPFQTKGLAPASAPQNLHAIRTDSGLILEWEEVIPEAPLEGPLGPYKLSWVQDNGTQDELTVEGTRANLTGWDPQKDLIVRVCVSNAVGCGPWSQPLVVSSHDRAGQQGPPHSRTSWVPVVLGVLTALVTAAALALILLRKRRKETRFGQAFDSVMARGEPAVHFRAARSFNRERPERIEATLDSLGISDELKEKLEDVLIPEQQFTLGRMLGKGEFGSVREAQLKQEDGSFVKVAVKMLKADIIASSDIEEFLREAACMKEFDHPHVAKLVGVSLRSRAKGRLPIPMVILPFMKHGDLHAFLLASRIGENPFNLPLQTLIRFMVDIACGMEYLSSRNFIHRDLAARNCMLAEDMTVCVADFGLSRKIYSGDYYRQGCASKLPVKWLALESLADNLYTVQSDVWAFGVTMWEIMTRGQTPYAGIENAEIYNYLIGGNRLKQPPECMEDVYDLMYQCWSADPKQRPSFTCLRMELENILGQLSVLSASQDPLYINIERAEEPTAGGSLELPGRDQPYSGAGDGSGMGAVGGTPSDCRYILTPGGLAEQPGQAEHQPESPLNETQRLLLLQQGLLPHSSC

[21] = biological target: Phosphorylase b kinase gamma catalytic chain, liver/testis isoform (Homo sapiens) (UniProt P15735); test: Inhibition of human PhKgamma2 assessed as enzyme activity at 1 uM relative to control; set-up: scale not given: the % may be the effect or the level left
[22] = biological target: Activated CDC42 kinase 1 (Homo sapiens) (UniProt Q07912); test: Inhibition of human TNK2 assessed as enzyme activity at 1 uM relative to control; set-up: scale not given: the % may be the effect or the level left
[23] = biological target: Serine/threonine-protein kinase PAK 4 (Homo sapiens) (UniProt O96013); test: Inhibition of human PAK4 assessed as enzyme activity at 1 uM relative to control; set-up: scale not given: the % may be the effect or the level left
[24] = biological target: Dual specificity protein kinase CLK2 (Homo sapiens) (UniProt P49760); test: Inhibition of human CLK2 assessed as enzyme activity at 1 uM relative to control; set-up: scale not given: the % may be the effect or the level left
[25] = biological target: Serine/threonine-protein kinase MRCK alpha (Homo sapiens) (UniProt Q5VT25); test: Inhibition of human MRCKalpha assessed as enzyme activity at 1 uM relative to control; set-up: scale not given: the % may be the effect or the level left
[26] = biological target: AMP-activated protein kinase (AMPK) alpha-1/beta-1/gamma-1 (Homo sapiens) (UniProt P54619+Q9Y478+Q13131); test: Inhibition of human AMPKA1/B1/G1 assessed as enzyme activity at 1 uM relative to control; assay type: protein-complex assay; set-up: scale not given: the % may be the effect or the level left
[27] = biological target: Ephrin type-A receptor 7 (Homo sapiens) (UniProt Q15375); test: Inhibition of human EphA7 assessed as enzyme activity at 1 uM relative to control; set-up: scale not given: the % may be the effect or the level left
Chain of Ephrin type-A receptor 7 (Homo sapiens) (Q15375 28-998 limits assumed): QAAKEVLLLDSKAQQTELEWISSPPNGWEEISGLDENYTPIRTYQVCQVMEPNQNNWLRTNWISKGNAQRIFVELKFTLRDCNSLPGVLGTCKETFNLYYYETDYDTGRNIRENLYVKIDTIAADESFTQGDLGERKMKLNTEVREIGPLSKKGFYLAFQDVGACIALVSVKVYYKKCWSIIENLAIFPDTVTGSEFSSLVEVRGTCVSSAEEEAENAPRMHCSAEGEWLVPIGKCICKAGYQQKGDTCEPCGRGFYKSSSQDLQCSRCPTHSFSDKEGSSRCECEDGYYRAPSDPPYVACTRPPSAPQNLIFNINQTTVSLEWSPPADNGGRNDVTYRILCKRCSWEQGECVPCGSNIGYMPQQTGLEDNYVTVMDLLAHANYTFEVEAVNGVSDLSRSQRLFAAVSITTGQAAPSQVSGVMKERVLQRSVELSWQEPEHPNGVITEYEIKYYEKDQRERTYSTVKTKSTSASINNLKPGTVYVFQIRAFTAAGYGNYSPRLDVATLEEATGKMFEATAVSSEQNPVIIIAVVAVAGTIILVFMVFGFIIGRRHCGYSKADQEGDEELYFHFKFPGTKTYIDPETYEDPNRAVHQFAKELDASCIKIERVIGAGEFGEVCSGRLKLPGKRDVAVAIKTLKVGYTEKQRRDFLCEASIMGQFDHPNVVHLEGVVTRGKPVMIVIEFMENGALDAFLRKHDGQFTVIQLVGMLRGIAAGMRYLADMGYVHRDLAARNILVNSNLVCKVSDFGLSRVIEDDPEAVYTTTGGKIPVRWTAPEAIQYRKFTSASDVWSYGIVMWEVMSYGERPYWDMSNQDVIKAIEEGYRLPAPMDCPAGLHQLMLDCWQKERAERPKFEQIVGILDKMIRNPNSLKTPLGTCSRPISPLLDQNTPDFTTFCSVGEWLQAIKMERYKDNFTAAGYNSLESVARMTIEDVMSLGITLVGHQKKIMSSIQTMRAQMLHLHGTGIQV

[28] = biological target: Homeodomain-interacting protein kinase 1 (Homo sapiens) (UniProt Q86Z02); test: Inhibition of human HIPK1 assessed as enzyme activity at 1 uM relative to control; set-up: scale not given: the % may be the effect or the level left
[29] = biological target: Casein kinase I isoform delta (Homo sapiens) (UniProt P48730); test: Inhibition of human CK1delta assessed as enzyme activity at 1 uM relative to control; set-up: scale not given: the % may be the effect or the level left
[30] = biological target: Insulin-like growth factor 1 receptor (Homo sapiens) (UniProt P08069); test: Inhibition of human activated IGF-1R assessed as enzyme activity at 1 uM relative to control; set-up: scale not given: the % may be the effect or the level left
[31] = biological target: PAS domain-containing serine/threonine-protein kinase (Homo sapiens) (UniProt Q96RG2); test: Inhibition of human PASK assessed as enzyme activity at 1 uM relative to control; set-up: scale not given: the % may be the effect or the level left
Chain of PAS domain-containing serine/threonine-protein kinase (Homo sapiens) (Q96RG2 whole entry, the tested form may be a part): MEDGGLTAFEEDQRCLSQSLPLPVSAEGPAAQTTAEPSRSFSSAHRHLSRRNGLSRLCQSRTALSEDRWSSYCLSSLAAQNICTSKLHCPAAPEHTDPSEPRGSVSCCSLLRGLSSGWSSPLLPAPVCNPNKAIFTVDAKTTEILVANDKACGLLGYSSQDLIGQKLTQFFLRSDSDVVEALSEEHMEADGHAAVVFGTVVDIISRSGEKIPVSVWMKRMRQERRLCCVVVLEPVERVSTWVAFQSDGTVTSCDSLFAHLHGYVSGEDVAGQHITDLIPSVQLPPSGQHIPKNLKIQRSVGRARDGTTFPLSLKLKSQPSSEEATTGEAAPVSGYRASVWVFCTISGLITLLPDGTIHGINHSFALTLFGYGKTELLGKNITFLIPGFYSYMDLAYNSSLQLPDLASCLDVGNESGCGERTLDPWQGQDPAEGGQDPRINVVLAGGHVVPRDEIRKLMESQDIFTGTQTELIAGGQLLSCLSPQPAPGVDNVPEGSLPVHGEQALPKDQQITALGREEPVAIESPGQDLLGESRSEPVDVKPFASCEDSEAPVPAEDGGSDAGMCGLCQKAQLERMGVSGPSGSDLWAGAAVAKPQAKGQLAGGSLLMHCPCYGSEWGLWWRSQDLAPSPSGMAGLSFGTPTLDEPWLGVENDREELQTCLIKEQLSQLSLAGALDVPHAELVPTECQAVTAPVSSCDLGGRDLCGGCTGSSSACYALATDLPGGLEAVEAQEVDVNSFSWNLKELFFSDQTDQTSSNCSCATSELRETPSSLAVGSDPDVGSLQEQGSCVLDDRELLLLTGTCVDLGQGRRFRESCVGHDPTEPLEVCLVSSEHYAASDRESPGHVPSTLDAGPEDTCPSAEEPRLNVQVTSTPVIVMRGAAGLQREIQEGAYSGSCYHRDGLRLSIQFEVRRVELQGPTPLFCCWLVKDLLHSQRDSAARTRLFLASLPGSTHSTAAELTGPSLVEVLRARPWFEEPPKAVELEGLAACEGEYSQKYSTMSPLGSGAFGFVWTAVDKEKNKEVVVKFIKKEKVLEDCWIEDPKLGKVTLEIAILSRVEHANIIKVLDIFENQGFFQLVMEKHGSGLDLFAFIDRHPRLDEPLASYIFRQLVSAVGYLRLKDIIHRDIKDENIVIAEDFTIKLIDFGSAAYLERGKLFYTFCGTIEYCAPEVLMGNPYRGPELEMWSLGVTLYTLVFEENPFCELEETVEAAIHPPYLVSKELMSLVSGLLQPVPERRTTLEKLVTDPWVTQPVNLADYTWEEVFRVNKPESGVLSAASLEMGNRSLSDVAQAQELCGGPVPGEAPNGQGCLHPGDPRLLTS

[32] = biological target: Muscle, skeletal receptor tyrosine-protein kinase (Homo sapiens) (UniProt O15146); test: Inhibition of human MuSK assessed as enzyme activity at 1 uM relative to control; set-up: scale not given: the % may be the effect or the level left
[33] = biological target: Serine/threonine-protein kinase ULK3 (Homo sapiens) (UniProt Q6PHR2); test: Inhibition of human ULK3 assessed as enzyme activity at 1 uM relative to control; set-up: scale not given: the % may be the effect or the level left
[34] = biological target: Glycogen synthase kinase-3 beta (Homo sapiens) (UniProt P49841); test: Inhibition of human GSK3beta assessed as enzyme activity at 1 uM relative to control; set-up: scale not given: the % may be the effect or the level left
[35] = biological target: Protein kinase C eta type (Homo sapiens) (UniProt P24723); test: Inhibition of human PKCeta assessed as enzyme activity at 1 uM relative to control; set-up: scale not given: the % may be the effect or the level left
[36] = biological target: High affinity nerve growth factor receptor (Homo sapiens) (UniProt P04629); test: Inhibition of human TrkA assessed as enzyme activity at 1 uM relative to control; set-up: scale not given: the % may be the effect or the level left
Chain of High affinity nerve growth factor receptor (Homo sapiens) (P04629 33-796 limits assumed): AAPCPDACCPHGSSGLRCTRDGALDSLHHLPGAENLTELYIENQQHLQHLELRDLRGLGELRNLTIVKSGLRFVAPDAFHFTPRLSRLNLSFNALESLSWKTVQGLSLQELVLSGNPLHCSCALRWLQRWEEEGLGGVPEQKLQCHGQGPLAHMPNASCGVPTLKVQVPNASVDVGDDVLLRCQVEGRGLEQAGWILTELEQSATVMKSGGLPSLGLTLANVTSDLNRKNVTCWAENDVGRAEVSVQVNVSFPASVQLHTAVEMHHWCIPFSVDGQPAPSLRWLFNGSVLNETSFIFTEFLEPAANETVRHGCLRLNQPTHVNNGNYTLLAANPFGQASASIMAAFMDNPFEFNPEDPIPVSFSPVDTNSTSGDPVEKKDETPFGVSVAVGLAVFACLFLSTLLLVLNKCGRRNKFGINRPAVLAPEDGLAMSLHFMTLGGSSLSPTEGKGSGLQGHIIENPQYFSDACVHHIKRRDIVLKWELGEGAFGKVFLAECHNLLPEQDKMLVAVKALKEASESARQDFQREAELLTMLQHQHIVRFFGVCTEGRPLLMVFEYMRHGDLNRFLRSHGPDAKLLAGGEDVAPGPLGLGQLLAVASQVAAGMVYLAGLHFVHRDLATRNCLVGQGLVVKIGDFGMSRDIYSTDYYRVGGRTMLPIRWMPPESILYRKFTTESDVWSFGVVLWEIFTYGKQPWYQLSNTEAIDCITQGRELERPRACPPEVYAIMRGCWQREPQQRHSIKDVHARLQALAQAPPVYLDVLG

[37] = AUC in mouse at 30 mg/kg, po; assay type: ADME, organism-based; set-up: dose 30 mg/kg, route oral; settings: plasma

- Activity [1]: 114%
- Activity (TAK1/TAB1 (Homo sapiens)): 95.5%
- Activity [2]: 114%
- Activity [3]: 109%
- Activity [4]: 103%
- Activity [5]: 134%
- Activity [6]: 91.5%
- Activity [7]: 100%
- clearance [9]: 1.6 mL/min/kg
- Activity [10]: 154%
- Activity [11]: 112%
- Activity [12]: 110%
- Activity [13]: 91.5%
- Activity [14]: 114%
- Activity [15]: 100%
- Activity [17]: 100%
- Activity [18]: 121%
- Activity [19]: 101%
- Activity [20]: 97%
- Activity [21]: 112%
- Activity [22]: 104%
- Activity [23]: 92%
- Activity [24]: 110%
- Activity [25]: 127%
- Activity [26]: 95%
- Activity [27]: 99%
- Activity [28]: 114%
- Activity [29]: 95.5%
- Activity [30]: 84%
- Activity [31]: 110%
- Activity [32]: 95%
- Activity [33]: 92%
- Activity [34]: 95.5%
- Activity [35]: 101%
- Activity [36]: 103%
- AUC [37]: 483 µM·h
SMILES: CCCS(=O)(=O)Nc1cccc(Nc2ccc3ncn(C)c(=O)c3c2)c1C#N
- inhibition in vivo at 30 mg/kg [8]: 99%
- inhibition in vivo at 30 mg/kg [16]: 65%
